According to patent US20190100534A1, “Cephem Compounds with Latent Reactive Groups” (Gladius Pharmaceuticals, Inc., priority 2017, published 2019):

Columns and labels:
Type in all cases: cell-based
[1] = test system: Pseudomonas aeruginosa PA (RR-1); assay: MIC determination; details: Pseudomonas aeruginosa; PA (RR-1); CAMH broth, 20 μM Apo-Transferrin, 37° C., 18 hours; read-out: Minimum Inhibitory Concentrations, PA (RR-1)
Experimental: (§1) Sterile technique was used throughout these experiments. Suspensions of organisms were removed from storage (−80° C.) and partially thawed. Partially thawed organisms (1 μL) were inoculated into 3 mL sterile LB Broth in a sterile culture tube and capped, then cultured at 37° C. with shaking for 4-5 hours until the optical density at 600 nm (OD600) was greater than 0.1 on a single beam spectrophotometer.
(§2) The concentration of organisms was adjusted to 0.08-0.1 OD600 (0.5 McFarland units) by dilution with sterile cation-adjusted Meuller-Hinton (CAMH) broth. The suspensions were used within 30 minutes of preparation.
(§3) A stock solution was made of each test compound by measuring 6.4 mg of the compound on an analytical balance and dissolving it in DMSO (1 mL) to get a transparent solution. The solutions were stored at −20° C. and thawed prior to use.
(§4) Sterile CAMH broth (200 μL) containing 20 μM Apo-Transferrin was pipetted into the first row of 8 columns of a sterile, round-bottomed, transparent, 96-well microplate using an 8-channel pipette equipped with sterile tips. One hundred μL was pipetted into the wells of the remaining 11 rows.
(§5) With an 8-channel pipette equipped with sterile tips, 100 μL of the first row solution was transferred to the second row and mixed. The process was repeated for the second to third rows and continued through row 11. One hundred μL from row 11 was removed and discarded so that all 12 rows contained 100 μL. Row 12 contained no compound and rows 1-11 contained 64, 32, 16, 8, 4, 2, 1, 0.5, 0.25, 0.125, […] of a given compound.
(§6) Inoculant suspensions (0.5 μL) were added to the 12 wells of each column. The plates were then covered and incubated at 37° C. overnight for 18 hours.
(§7) For each organism the MIC was determined by identifying the transparent well with the lowest test compound concentration.

[2] = test system: Pseudomonas aeruginosa PA (RR-2); assay: MIC determination; details: Pseudomonas aeruginosa; PA (RR-2); CAMH broth, 20 μM Apo-Transferrin, 37° C., 18 hours; read-out: Minimum Inhibitory Concentrations, PA (RR-2)
Experimental: as §1, §2, §3, §4, §5, §6, §7

[3] = test system: Pseudomonas aeruginosa PA-RR-(98023895); assay: MIC determination; details: Pseudomonas aeruginosa; PA-RR-(98023895); CAMH broth, 20 μM Apo-Transferrin, 37° C., 18 hours; read-out: Minimum Inhibitory Concentrations, PA-RR-(98023895)
Experimental: as §1, §2, §3, §4, §5, §6, §7

[4] = test system: Pseudomonas aeruginosa PA-RR-(G7294437); assay: MIC determination; details: Pseudomonas aeruginosa; PA-RR-(G7294437); CAMH broth, 20 μM Apo-Transferrin, 37° C., 18 hours; read-out: Minimum Inhibitory Concentrations, PA-RR-(G7294437)
Experimental: as §1, §2, §3, §4, §5, §6, §7

[5] = test system: Pseudomonas aeruginosa PA-RR-(G7305586); assay: MIC determination; details: Pseudomonas aeruginosa; PA-RR-(G7305586); CAMH broth, 20 μM Apo-Transferrin, 37° C., 18 hours; read-out: Minimum Inhibitory Concentrations, PA-RR-(G7305586)
Experimental: as §1, §2, §3, §4, §5, §6, §7

[6] = test system: Pseudomonas aeruginosa PA-RR-(purple Fre D); assay: MIC determination; details: Pseudomonas aeruginosa, CAMH broth, 20 μM Apo-Transferrin, 37° C., 18 hours, read-out: Minimum Inhibitory Concentrations, PA-RR-(purple Fre D)
Experimental: as §1, §2, §3, §4, §5, §6, §7

E. coli J53 Alone = assay: MIC determination, isogenic E. coli strains; details: for MIC: Escherichia coli, J53ALONE, 18 h, read-out: Mimimum Inhibitory Concentrations, J53 Alone; for Mimimum Inhibitory Concentrations, J53 Alone: Table 4-2, CAMH broth, 20 μM Apo-Transferrin, 37° C., 18 hours
Procedure, shortened: (§8)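 Broth microdilution in cation-adjusted Mueller-Hinton broth with 20 μM apo-transferrin, 2-fold compound series from 64 μg/mL. E. coli J53, alone or transformed with a pBC-SK(+) plasmid carrying the beta-lactamase gene (e.g. DHA-1), inoculated from 0.5 McFarland suspension; 18 h at 37° C; MIC = lowest concentration with clear well.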

[7] = test system: Isogenic E. coli J58 strain carrying TEM-26; assay: MIC determination, isogenic E. coli strains; details: Escherichia coli, 18 h, read-out: Mimimum Inhibitory Concentrations, TEM-26
Procedure, shortened: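 Broth microdilution in cation-adjusted Mueller-Hinton broth with 20 μM apo-transferrin, compound […] in twofold steps, inoculum from 0.5 McFarland suspension. E. coli J53 transformed with pBC-SK(+) encoding TEM-26; 18 h at 37° C, MIC as lowest concentration giving a clear well.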

[8] = test system: Isogenic E. coli J58 strain carrying SHV-1; assay: MIC determination, isogenic E. coli strains; details: Escherichia coli, 18 h, read-out: Mimimum Inhibitory Concentrations, SHV-1
Procedure, shortened: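 MIC is the lowest compound concentration leaving a transparent well after overnight (18 h) incubation at 37 °C. The test strain was E. coli J53 expressing plasmid-borne SHV-1 beta-lactamase from pBC-SK(+), adjusted to 0.5 McFarland. Compounds were twofold serially diluted, starting at 64 μg/mL, in CAMH broth supplemented with 20 μM apo-transferrin.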

[9] = test system: Isogenic E. coli J58 strain carrying CTX-M-14; assay: MIC determination, isogenic E. coli strains; details: Escherichia coli, 18 h, read-out: Mimimum Inhibitory Concentrations, CTX-M-14
Procedure, shortened: (§9)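 Isogenic E. coli J53 carrying plasmid-encoded CTX-M-14 or CTX-M-15 (ampicillin-selected), standardized to 0.08-0.1 OD600, incubated overnight (18 h, 37° C.) in CAMH broth plus 20 μM apo-transferrin over 2-fold compound dilutions starting at 64 μg/mL. Lowest concentration with no visible growth recorded as MIC.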

[10] = test system: Isogenic E. coli J58 strain carrying CTX-M-15; assay: MIC determination, isogenic E. coli strains; details: Escherichia coli, 18 h, read-out: Mimimum Inhibitory Concentrations, CTX-M-15
Procedure, shortened: as §9

[11] = test system: Isogenic E. coli J58 strain carrying KPC-2; assay: MIC determination, isogenic E. coli strains; details: Escherichia coli, 18 h, read-out: Mimimum Inhibitory Concentrations, KPC-2
Procedure, shortened: (§10)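 Broth microdilution in cation-adjusted Mueller-Hinton broth with 20 μM apo-transferrin, compound at 64 down to […], inoculum set to 0.5 McFarland. E. coli J53 transformed with pBC-SK(+) carrying the synthetic beta-lactamase gene was used. Plates were incubated 18 h at 37 °C; MIC is the lowest concentration giving a clear well.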

[12] = test system: Isogenic E. coli J58 strain carrying KPC-3; assay: MIC determination, isogenic E. coli strains; details: Escherichia coli, 18 h, read-out: Mimimum Inhibitory Concentrations, KPC-3
Procedure, shortened: as §10

[13] = test system: Isogenic E. coli J58 strain carrying NDM-1; assay: MIC determination, isogenic E. coli strains; details: Escherichia coli, 18 h, read-out: Mimimum Inhibitory Concentrations, NDM-1
Procedure, shortened: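 E. coli J53 transformed with a pBC-SK(+) plasmid encoding NDM-1 was adjusted to 0.08-0.1 OD600. It was grown 18 h at 37° C in CAMH broth containing 20 μM apo-transferrin with twofold compound dilutions from 64 μg/mL. MIC was taken as the lowest concentration giving a transparent well.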

[14] = test system: Isogenic E. coli J58 strain carrying VIM-2; assay: MIC determination, isogenic E. coli strains; details: for MIC: Escherichia coli, 18 h, read-out: Mimimum Inhibitory Concentrations, VIM-2
Procedure, shortened: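 E. coli J53 transformed with pBC-SK(+) plasmid carrying synthesized VIM-2 gene, grown in LB to OD600 >0.1, adjusted to 0.08–0.1 OD600 in CAMH broth.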

[15] = test system: Isogenic E. coli J58 strain carrying IMP-1; assay: MIC determination, isogenic E. coli strains; details: for MIC: Escherichia coli, 18 h, read-out: Mimimum Inhibitory Concentrations, IMP-1
Procedure, shortened: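 Broth microdilution in cation-adjusted Mueller-Hinton broth with 20 μM apo-transferrin, compound serially diluted two-fold from 64 μg/mL, against E. coli J53 carrying plasmid-borne IMP-1. Inoculum adjusted to 0.5 McFarland; plates incubated 18 h at 37° C. MIC taken as lowest concentration giving a clear well.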

[16] = test system: Isogenic E. coli J58 strain carrying DHA-1; assay: MIC determination, isogenic E. coli strains; details: Escherichia coli, 18 h, read-out: Mimimum Inhibitory Concentrations, DHA-1
Procedure, shortened: as §8

SMILES | MIC [1] [µg/mL] | MIC [2] [µg/mL] | MIC [3] [µg/mL] | MIC [4] [µg/mL] | MIC [5] [µg/mL] | MIC [6] [µg/mL] | MIC (E. coli J53 Alone) [µg/mL] | Mimimum Inhibitory Concentrations, J53 Alone (E. coli J53 Alone) [microgram/mL] | MIC [7] [µg/mL] | MIC [8] [µg/mL] | MIC [9] [µg/mL] | MIC [10] [µg/mL] | MIC [11] [µg/mL] | MIC [12] [µg/mL] | MIC [13] [µg/mL] | MIC [14] [µg/mL] | MIC [15] [µg/mL] | MIC [16] [µg/mL] | MICs for an E. coli strain carrying the gene for carbapenemase VIM-1, in words ([14]; review of Tables 4-1 and 4-2) | MICs for an E. coli strain carrying the gene for carbapenemase IMP-1, in words ([15]; review of Tables 4-1 and 4-2)
CC(C)(O/N=C(\C(=O)N[C@@H]1C(=O)N2C(C(=O)O)=C(C=Cc3ccc(C[N+]4(C)CCc5cc(O)c(O)cc5C4)cc3)CS[C@H]12)c1csc(N)n1)C(=O)O (mixture of isomers) [Compound 407, 2-(4-((E/Z)-2-((6R,7R)-7-((Z)-2-(2-aminothiazol-4-yl)-2-(((2-carboxypropan-2-yl)oxy)imino)acetamido)-2-carboxy-8-oxo-5-thia-1-azabicyclo[4.2.0]oct-2-en-3 yl)vinyl)benzyl)-6,7-dihydroxy-2-methyl-1,2,3,4-tetrahydroisoquinolin-2-ium] | 4 | 2 | 0.13 | 0.03 | 0.03 | 0.06 | 0.13 | 0.13 | 1 | 0.5 | 1 | 64 | 8 | 4 | > 64 | 0.5 | 32 |  |  | 
Cn1c[n+](Cc2ccc(C=CC3=C(C(=O)O)N4C(=O)[C@@H](NC(=O)/C(=N\OC(C)(C)C(=O)O)c5csc(N)n5)[C@H]4SC3)cc2)cc1C(=O)Nc1ccc(O)c(O)c1 (mixture of isomers) [Compound 411, 3-(4-((E/Z)-2-((6R,7R)-7-((Z)-2-(2-aminothiazol-4-yl)-2-(((2-carboxypropan-2-yl)oxy)imino)acetamido)-2-carboxy-8-oxo-5-thia-1-azabicyclo[4.2.0]oct-2-en-3-yl)vinyl)benzyl)-5-((3,4-dihydroxyphenyl)carbamoyl)-1-methyl-1H-imidazol-3-ium] | 4 | 4 | 8 | 1 | 16 | 2 | 0.5 | 0.5 | 8 | 4 | 4 | 0.5 | 32 | 8 | > 64 | 2 | 64 | 1 |  | 
CC(C)(O/N=C(\C(=O)N[C@@H]1C(=O)N2C(C(=O)O)=C(C=Cc3ccc(C[N+]4(C)CCc5c(Cl)c(O)c(O)c(Cl)c5C4)cc3)CS[C@H]12)c1csc(N)n1)C(=O)O (mixture of isomers) [Compound 429, 2-(4-((E/Z)-2-((6R,7R)-7-((Z)-2-(2-aminothiazol-4-yl)-2-(((2-carboxypropan-2-yl)oxy)imino)acetamido)-2-carboxy-8-oxo-5-thia-1-azabicyclo[4.2.0]oct-2-en-3-yl)vinyl)benzyl)-5,8 dichloro-6,7-dihydroxy-2-methyl-1,2,3,4-tetrahydroisoquinolin-2-ium] | 0.25 | ≤ 0.06 | 4 | ≤ 0.06 | 1 | 2 | ≤ 0.06 | ≤0.06 |  | 0.25 |  |  | 4 | 1 | > 64 | ≤ 0.06 | ≤ 0.06 | 0.25 | low microgram/mL MICs | 
CC(C)(O/N=C(\C(=O)N[C@@H]1C(=O)N2C(C(=O)O)=C(C=Cc3ccc(C[N+]4(C)CCc5ccc(O)c(O)c5C4)cc3)CS[C@H]12)c1csc(N)n1)C(=O)O (mixture of isomers) [Compound 442, 2-(4-((E/Z)-2-((6R,7R)-7-((Z)-2-(2-aminothiazol-4-yl)-2-(((2-carboxypropan-2-yl)oxy)imino)acetamido)-2-carboxy-8-oxo-5-thia-1-azabicyclo[4.2.0]oct-2-en-3 yl)vinyl)benzyl)-7,8-dihydroxy-2-methyl-1,2,3,4-tetrahydroisoquinolin-2-ium] | 0.5 | ≤ 0.06 | 8 | ≤ 0.06 | 2 | 1 | 0.25 | 0.25 | 0.5 | 0.5 |  |  | 2 | 1 | > 64 |  |  |  |  | low microgram/mL MICs
